Patent US20230322761A1, “DEGRADATION OF BRUTON'S TYROSINE KINASE (BTK) BY CONJUGATION OF BTK INHIBITORS WITH E3 LIGASE LIGAND AND METHODS OF USE” (BEIGENE, LTD., priority 2020, published 2023)

Target: T1, BTK (Homo sapiens, UniProt Q06187)
T1 construct: endogenous in cells; host or cells: TMD-8 cells
Experiment: BTK degradation in TMD-8 cells, HTRF assay after 6 h treatment
Assay type: cell-based
Settings: IC50 (DC50) of BTK degradation
Procedure, shortened: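 TMD-8 cells treated for 6 h with 8 compound doses in 6-fold dilution steps from a 1 mM 500× DMSO stock (0.2% DMSO), then lysed 30 min at room temperature. BTK in lysate detected by HTRF (665/620 nm) after overnight antibody incubation; DC50 from four-parameter curve fit.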

T1 sequence (Q06187 whole entry): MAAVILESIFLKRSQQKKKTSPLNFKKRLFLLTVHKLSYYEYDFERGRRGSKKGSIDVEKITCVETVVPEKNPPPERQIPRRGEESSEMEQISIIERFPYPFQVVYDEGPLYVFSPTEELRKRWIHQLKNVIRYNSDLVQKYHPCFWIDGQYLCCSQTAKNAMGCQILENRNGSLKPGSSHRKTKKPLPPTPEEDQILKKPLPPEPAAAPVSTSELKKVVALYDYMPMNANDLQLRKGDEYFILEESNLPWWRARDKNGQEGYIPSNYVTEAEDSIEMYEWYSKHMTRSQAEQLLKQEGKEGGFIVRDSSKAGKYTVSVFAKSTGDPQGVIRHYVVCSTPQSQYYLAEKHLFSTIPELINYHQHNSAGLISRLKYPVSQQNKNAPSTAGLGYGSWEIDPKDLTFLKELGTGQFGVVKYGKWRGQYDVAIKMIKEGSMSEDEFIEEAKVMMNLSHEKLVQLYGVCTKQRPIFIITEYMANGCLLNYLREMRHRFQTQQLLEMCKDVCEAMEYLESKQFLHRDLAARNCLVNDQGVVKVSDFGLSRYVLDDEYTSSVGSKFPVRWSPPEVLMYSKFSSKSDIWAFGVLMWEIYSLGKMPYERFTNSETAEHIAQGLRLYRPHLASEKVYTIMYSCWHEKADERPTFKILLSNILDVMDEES

Row | Structure (SMILES) | DC50
1 | Cc1cc(-c2n[nH]c3ncc(-c4ccc(N5CCN(CC6CCN(c7ccc(N8CCC(=O)NC8=O)cc7)CC6)CC5)cc4)cc23)ccc1[C@@H](C)NC(=O)c1ccc(C(C)(C)O)cc1F [Example 96, (R)—N-(1-(4-(5-(4-(4-((1-(4-(2,4-dioxotetrahydropyrimidin-1(2H)-yl)phenyl)piperidin-4-yl)methyl)piperazin-1-yl)phenyl)-1H-pyrazolo[3,4-b]pyridin-3-yl)-2-methylphenyl)ethyl)-2-fluoro-4-(2-hydroxypropan-2-yl)benzamide] | > 2000 nM
2 | Cc1cc(-c2n[nH]c3ncc(-c4ccc(N5CCN(CC6CCN(c7ccc(N8CCC(=O)NC8=O)cc7)CC6)CC5)c(F)c4)cc23)ccc1[C@@H](C)NC(=O)c1noc(C(C)(C)C)n1 [Example 97, (R)-5-(tert-butyl)-N-(1-(4-(5-(4-(4-((1-(4-(2,4-dioxotetrahydropyrimidin-1(2H)-yl)phenyl)piperidin-4-yl)methyl)piperazin-1-yl)-3-fluorophenyl)-1H-pyrazolo[3,4-b]pyridin-3-yl)-2-methylphenyl)ethyl)-1,2,4-oxadiazole-3-carboxamide] | 5.8 nM
3 | Cc1cc(-c2n[nH]c3ncc(-c4ccc(N5CCN(CC6CCN(c7ccc(N8CCC(=O)NC8=O)c(C)c7)CC6)CC5)cc4)cc23)ccc1[C@@H](C)NC(=O)c1nc(C(C)(C)C)no1 [Example 98, (R)-3-(tert-butyl)-N-(1-(4-(5-(4-(4-((1-(4-(2,4-dioxotetrahydropyrimidin-1(2H)-yl)-3-methylphenyl)piperidin-4-yl)methyl)piperazin-1-yl)phenyl)-1H-pyrazolo[3,4-b]pyridin-3-yl)-2-methylphenyl)ethyl)-1,2,4-oxadiazole-5-carboxamide] | 2.68 nM
4 | Cc1c(CNC(=O)c2noc(C(C)(C)C)n2)ccc(-c2n[nH]c3ncc(-c4ccc(N5CCN(CC6CCN(c7ccc(N8CCC(=O)NC8=O)cc7)CC6)CC5)cc4)cc23)c1F [Example 99, 5-(tert-butyl)-N-(4-(5-(4-(4-((1-(4-(2,4-dioxotetrahydropyrimidin-1(2H)-yl)phenyl)piperidin-4-yl)methyl)piperazin-1-yl)phenyl)-1H-pyrazolo[3,4-b]pyridin-3-yl)-3-fluoro-2-methylbenzyl)-1,2,4-oxadiazole-3-carboxamide] | 17.8 nM
5 | Cc1cc(-c2n[nH]c3ncc(-c4ccc(N5CCN(CC6CCN(c7ccc(N8CCC(=O)NC8=O)cc7)CC6)CC5)cc4)cc23)c(F)cc1CNC(=O)c1noc(C(C)(C)C)n1 [Example 100, 5-(tert-butyl)-N-(4-(5-(4-(4-((1-(4-(2,4-dioxotetrahydropyrimidin-1(2H)-yl)phenyl)piperidin-4-yl)methyl)piperazin-1-yl)phenyl)-1H-pyrazolo[3,4-b]pyridin-3-yl)-5-fluoro-2-methylbenzyl)-1,2,4-oxadiazole-3-carboxamide] | 10.2 nM
6 | Cc1cc(-c2n[nH]c3ncc(-c4ccc(N5CCN(CCc6ccc(C7CCC(=O)NC7=O)cn6)CC5)cc4)cc23)ccc1[C@@H](C)NC(=O)c1noc(C(C)(C)C)n1 (stereo partly drawn) [Example 101, 5-(tert-butyl)-N-((1R)-1-(4-(5-(4-(4-(2-(5-(2,6-dioxopiperidin-3-yl)pyridin-2-yl)ethyl)piperazin-1-yl)phenyl)-1H-pyrazolo[3,4-b]pyridin-3-yl)-2-methylphenyl)ethyl)-1,2,4-oxadiazole-3-carboxamide] | 0.959 nM
7 | Cc1cc(-c2n[nH]c3ncc(-c4ccc(N5CCN(CC6CCN(c7ccc(N8CCC(=O)NC8=O)cc7)CC6)CC5)c(C)c4)cc23)ccc1[C@@H](C)NC(=O)c1noc(C(C)(C)C)n1 [Example 102, (R)-5-(tert-butyl)-N-(1-(4-(5-(4-(4-((1-(4-(2,4-dioxotetrahydropyrimidin-1(2H)-yl)phenyl)piperidin-4-yl)methyl)piperazin-1-yl)-3-methylphenyl)-1H-pyrazolo[3,4-b]pyridin-3-yl)-2-methylphenyl)ethyl)-1,2,4-oxadiazole-3-carboxamide] | 9.72 nM
8 | Cc1cc(-c2n[nH]c3ncc(-c4ccc(N5CCN(CCc6ccc(C7CCC(=O)NC7=O)cc6)CC5)cn4)cc23)ccc1CNC(=O)c1noc(C(C)(C)C)n1 (stereo not shown) [Example 103, 5-(tert-butyl)-N-(4-(5-(5-(4-(4-(2,6-dioxopiperidin-3-yl)phenethyl)piperazin-1-yl)pyridin-2-yl)-1H-pyrazolo[3,4-b]pyridin-3-yl)-2-methylbenzyl)-1,2,4-oxadiazole-3-carboxamide] | 1.31 nM
9 | Cc1cc(-c2n[nH]c3ncc(-c4ccc(N5CCN(CCC6CCN(c7ccc(N8CCC(=O)NC8=O)c(Cl)c7)CC6)CC5)cc4)cc23)ccc1[C@@H](C)NC(=O)c1ccc(C(C)(C)O)cc1F [Example 104, (R)—N-(1-(4-(5-(4-(4-(2-(1-(3-chloro-4-(2,4-dioxotetrahydropyrimidin-1(2H)-yl)phenyl)piperidin-4-yl)ethyl)piperazin-1-yl)phenyl)-1H-pyrazolo[3,4-b]pyridin-3-yl)-2-methylphenyl)ethyl)-2-fluoro-4-(2-hydroxypropan-2-yl)benzamide] | > 2000 nM
10 | Cc1cc(-c2n[nH]c3ncc(-c4ccc(C5CCN(CC6CCN(c7ccc(N8CCC(=O)NC8=O)c(C)c7)CC6)CC5)nc4)cc23)ccc1CNC(=O)c1nc(C(C)(C)C)no1 [Example 105, 3-(tert-butyl)-N-(4-(5-(6-(1-((1-(4-(2,4-dioxotetrahydropyrimidin-1(2H)-yl)-3-methylphenyl)piperidin-4-yl)methyl)piperidin-4-yl)pyridin-3-yl)-1H-pyrazolo[3,4-b]pyridin-3-yl)-2-methylbenzyl)-1,2,4-oxadiazole-5-carboxamide] | 3.55 nM
11 | Cc1cc(-c2n[nH]c3ncc(-c4ccc(N5CCN(CCc6ccc(C7CCC(=O)NC7=O)cc6)CC5)cc4)cc23)ccc1CNC(=O)c1noc(C(C)(C)C)n1 (stereo not shown) [Example 107, 5-(tert-butyl)-N-(4-(5-(4-(4-(4-(2,6-dioxopiperidin-3-yl)phenethyl)piperazin-1-yl)phenyl)-1H-pyrazolo[3,4-b]pyridin-3-yl)-2-methylbenzyl)-1,2,4-oxadiazole-3-carboxamide] | 1.89 nM
12 | Cc1cc(-c2n[nH]c3ncc(-c4ccc(N5CCN(CCc6ccc(C7CCC(=O)NC7=O)cc6)CC5)cc4)cc23)ccc1CNC(=O)c1cn(C(C)(C)C)nn1 (stereo not shown) [Example 108, 1-(tert-butyl)-N-(4-(5-(4-(4-(4-(2,6-dioxopiperidin-3-yl)phenethyl)piperazin-1-yl)phenyl)-1H-pyrazolo[3,4-b]pyridin-3-yl)-2-methylbenzyl)-1H-1,2,3-triazole-4-carboxamide] | 4.13 nM
13 | Cc1cc(-c2n[nH]c3ncc(-c4ccc(N5CCN(CC6CCN(c7ccc(N8CCC(=O)NC8=O)cc7)CC6)CC5)cc4)cc23)ccc1[C@@H](C)NC(=O)c1noc(C2(C)CC2)n1 [Example 109, (R)—N-(1-(4-(5-(4-(4-((1-(4-(2,4-dioxotetrahydropyrimidin-1(2H)-yl)phenyl)piperidin-4-yl)methyl)piperazin-1-yl)phenyl)-1H-pyrazolo[3,4-b]pyridin-3-yl)-2-methylphenyl)ethyl)-5-(1-methylcyclopropyl)-1,2,4-oxadiazole-3-carboxamide] | 13.3 nM
14 | Cc1cc(-c2n[nH]c3ncc(-c4ccc(N5CCN(CCc6ccc([C@H]7CCC(=O)NC7=O)cc6)CC5)cc4)cc23)ccc1[C@@H](C)NC(=O)c1noc(C(C)(C)C)n1 [Example 111, 5-(tert-butyl)-N—((R)-1-(4-(5-(4-(4-(4-((R)-2,6-dioxopiperidin-3-yl)phenethyl)piperazin-1-yl)phenyl)-1H-pyrazolo[3,4-b]pyridin-3-yl)-2-methylphenyl)ethyl)-1,2,4-oxadiazole-3-carboxamide] | 4.93 nM
15 | Cc1cc(-c2n[nH]c3ncc(-c4ccc(N5CCN(CCc6ccc([C@@H]7CCC(=O)NC7=O)cc6)CC5)cc4)cc23)ccc1[C@@H](C)NC(=O)c1noc(C(C)(C)C)n1 [Example 112, 5-(tert-butyl)-N—((R)-1-(4-(5-(4-(4-(4-((S)-2,6-dioxopiperidin-3-yl)phenethyl)piperazin-1-yl)phenyl)-1H-pyrazolo[3,4-b]pyridin-3-yl)-2-methylphenyl)ethyl)-1,2,4-oxadiazole-3-carboxamide] | 1.79 nM
16 | Cc1cc(-c2n[nH]c3ncc(-c4ccc(N5CCN(CCc6ccc([C@H]7CCC(=O)NC7=O)c(F)c6)CC5)cc4)cc23)ccc1[C@@H](C)NC(=O)c1noc(C(C)(C)C)n1 [Example 113, 5-(tert-butyl)-N—((R)-1-(4-(5-(4-(4-(4-((R)-2,6-dioxopiperidin-3-yl)-3-fluorophenethyl)piperazin-1-yl)phenyl)-1H-pyrazolo[3,4-b]pyridin-3-yl)-2-methylphenyl)ethyl)-1,2,4-oxadiazole-3-carboxamide] | 17 nM
17 | Cc1cc(-c2n[nH]c3ncc(-c4ccc(N5CCN(CCc6ccc([C@@H]7CCC(=O)NC7=O)c(F)c6)CC5)cc4)cc23)ccc1[C@@H](C)NC(=O)c1noc(C(C)(C)C)n1 [Example 114, 5-(tert-butyl)-N—((R)-1-(4-(5-(4-(4-(4-((S)-2,6-dioxopiperidin-3-yl)-3-fluorophenethyl)piperazin-1-yl)phenyl)-1H-pyrazolo[3,4-b]pyridin-3-yl)-2-methylphenyl)ethyl)-1,2,4-oxadiazole-3-carboxamide] | 1.56 nM
18 | Cc1cc(-c2n[nH]c3ncc(-c4ccc(N5CCN(CC6CCN(c7ccc(N8CCC(=O)NC8=O)c(Cl)c7)CC6)CC5)cc4)cc23)ccc1[C@@H](C)NC(=O)c1noc(C(C)(C)C)n1 [Example 115, (R)-5-(tert-butyl)-N-(1-(4-(5-(4-(4-((1-(3-chloro-4-(2,4-dioxotetrahydropyrimidin-1(2H)-yl)phenyl)piperidin-4-yl)methyl)piperazin-1-yl)phenyl)-1H-pyrazolo[3,4-b]pyridin-3-yl)-2-methylphenyl)ethyl)-1,2,4-oxadiazole-3-carboxamide] | 4.87 nM
19 | Cc1cc(-c2n[nH]c3ncc(-c4ccc(N5CCN(CCc6ccc(C7CCC(=O)NC7=O)cc6)CC5)cn4)cc23)ccc1[C@@H](C)NC(=O)c1noc(C(C)(C)C)n1 (stereo partly drawn) [Example 116, 5-(tert-butyl)-N-((1R)-1-(4-(5-(5-(4-(4-(2,6-dioxopiperidin-3-yl)phenethyl)piperazin-1-yl)pyridin-2-yl)-1H-pyrazolo[3,4-b]pyridin-3-yl)-2-methylphenyl)ethyl)-1,2,4-oxadiazole-3-carboxamide] | 1.05 nM
